This test addresses T1, human type 1 glycine transporter (GlyT1) (Homo sapiens, UniProt P48067).
T1 construct: T98G cells (glioma cells) expressing human type 1 glycine transporter (GlyT1) were used
T1 sequence (P48067 1-706): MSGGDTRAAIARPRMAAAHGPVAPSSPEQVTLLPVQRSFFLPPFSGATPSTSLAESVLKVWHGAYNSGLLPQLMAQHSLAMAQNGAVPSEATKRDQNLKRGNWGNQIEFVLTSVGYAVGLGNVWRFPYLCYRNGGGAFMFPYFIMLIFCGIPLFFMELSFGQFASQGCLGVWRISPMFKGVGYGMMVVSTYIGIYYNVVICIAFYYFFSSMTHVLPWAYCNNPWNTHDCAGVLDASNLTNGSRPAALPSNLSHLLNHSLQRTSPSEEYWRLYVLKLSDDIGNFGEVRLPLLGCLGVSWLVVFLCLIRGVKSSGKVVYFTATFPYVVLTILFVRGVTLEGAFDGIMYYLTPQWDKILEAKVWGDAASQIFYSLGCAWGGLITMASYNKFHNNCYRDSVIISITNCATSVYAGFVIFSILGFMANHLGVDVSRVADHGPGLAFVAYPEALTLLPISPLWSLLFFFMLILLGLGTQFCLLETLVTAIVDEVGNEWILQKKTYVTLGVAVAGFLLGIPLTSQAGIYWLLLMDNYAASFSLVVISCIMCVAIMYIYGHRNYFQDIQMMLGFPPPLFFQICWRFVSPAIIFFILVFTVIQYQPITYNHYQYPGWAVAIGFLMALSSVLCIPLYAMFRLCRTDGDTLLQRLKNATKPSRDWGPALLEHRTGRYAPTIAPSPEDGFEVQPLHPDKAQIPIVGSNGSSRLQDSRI
Nature of the test: Glycine uptake inhibition experiment ([3H]glycine uptake). The conditions noted are these: GlyT1. It is filed as cell-based. In a few lines:
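T98G glioma cells expressing human GlyT1 were pretreated 10 min with compound in HEPES buffer pH 7.4 (0.2% BSA), then incubated with compound plus 250 nM final [3H]glycine for 15 min at room temperature. Intracellular radioactivity was counted after NaOH lysis; 10 μM ALX5407 defined non-specific uptake. IC50 came from 10^−9–10^−5 M curves.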

The IC50 is the concentration at which inhibition is half-maximal. High values mean weaker potency, low ones greater potency. For the compound `O=C(NC(c1cccc(F)c1)C1(O)CCCCC1)c1nccc(C(F)(F)F)c1Cl` (stereo not shown) [Compound 63, 3-chloro-N-[(3-fluorophenyl)(1-hydroxycyclohexyl)methyl]-4-(trifluoromethyl)pyridine-2-carboxamide], the IC50 worked out at 57 nM.
The result for `O=C(N[C@@H](c1cccc(Br)c1)C1(O)CCCC1)c1cccc(C(F)(F)F)c1Cl` [Compound 64, N-[(S)-(3-bromophenyl)(1-hydroxycyclopentyl)methyl]-2-chloro-3-(trifluoromethyl)benzamide] reads 75 nM.
The result for `O=C(NC(c1cccc(F)c1)C1(O)CCCC1)c1cccc(C(F)(F)F)c1Cl` (stereo not shown) [Compound 65, 2-chloro-N-[(3-fluorophenyl)(1-hydroxycyclopentyl)methyl]-3-(trifluoromethyl)benzamide] reads 270 nM; that for `O=C(N[C@@H](c1cccc(Br)c1)C1(O)CCCC1)c1nccc(C(F)(F)F)c1-n1cccn1` [Compound 69, N-[(S)-(3-bromophenyl)(1-hydroxycyclopentyl)methyl]-3-(1H-pyrazol-1-yl)-4-(trifluoromethyl)pyridine-2-carboxamide], 1400 nM.
In turn, `O=C(N[C@@H](c1cccc(Br)c1)C1(O)CCCC1)c1nccc(C(F)(F)F)c1-n1nccn1` [Compound 70, N-[(S)-(3-bromophenyl)(1-hydroxycyclopentyl)methyl]-3-(2H-1,2,3-triazol-2-yl)-4-(trifluoromethyl)pyridine-2-carboxamide] returned an IC50 of 1200 nM.
The result for `O=C(N[C@@H](c1cccc(Br)c1)C1(O)CCCC1)c1nccc(C(F)(F)F)c1-n1ccnn1` [Compound 71, N-[(S)-(3-bromophenyl)(1-hydroxycyclopentyl)methyl]-3-(1H-1,2,3-triazol-1-yl)-4-(trifluoromethyl)pyridine-2-carboxamide] reads 5700 nM; that for `CCn1cc(-c2cccc([C@H](NC(=O)c3cccc(C(F)(F)F)c3Cl)C3(O)CCCC3)c2)cn1` [Compound 74, 2-chloro-N-[(S)-[3-(1-ethyl-1H-pyrazol-4-yl)phenyl](1-hydroxycyclopentyl)methyl]-3-(trifluoromethyl)benzamide], 43 nM; that for `O=C(NC(c1cccc(F)c1)C1(O)CCC(F)(F)CC1)c1nccc(C(F)(F)F)c1Cl` (stereo not shown) [Compound 75, 3-chloro-N-[(4,4-difluoro-1-hydroxycyclohexyl)(3-fluorophenyl)methyl]-4-(trifluoromethyl)pyridine-2-carboxamide], 240 nM.
The result for `O=C(NC(c1cccc(-n2ccnn2)c1)C1(O)CCCC1)c1nccc(C(F)(F)F)c1Cl` (stereo not shown) [Compound 78, 3-chloro-N-{(1-hydroxycyclopentyl)[3-(1H-1,2,3-triazol-1-yl)phenyl]methyl}-4-(trifluoromethyl)pyridine-2-carboxamide] reads 450 nM; that for `O=C(NC(c1cccc(-n2nccn2)c1)C1(O)CCCC1)c1nccc(C(F)(F)F)c1Cl` (stereo not shown) [Compound 79, 3-chloro-N-{(1-hydroxycyclopentyl)[3-(2H-1,2,3-triazol-2-yl)phenyl]methyl}-4-(trifluoromethyl)pyridine-2-carboxamide], 310 nM.
The result for `O=C(NC(c1cccc(-n2cccn2)c1)C1(O)CCCC1)c1nccc(C(F)(F)F)c1Cl` (stereo not shown) [Compound 80, 3-chloro-N-{(1-hydroxycyclopentyl)[3-(1H-pyrazol-1-yl)phenyl]methyl}-4-(trifluoromethyl)pyridine-2-carboxamide] reads 160 nM; that for `O=C(NC(c1cccc(C(F)(F)F)c1)C1(O)CCCC1)c1nccc(C(F)(F)F)c1Cl` (stereo not shown) [Compound 81, 3-chloro-N-{(1-hydroxycyclopentyl)[3-(trifluoromethyl)phenyl]methyl}-4-(trifluoromethyl)pyridine-2-carboxamide], 960 nM; that for `O=C(NC(c1cccc(OC(F)(F)F)c1)C1(O)CCCC1)c1nccc(C(F)(F)F)c1Cl` (stereo not shown) [Compound 84, 3-chloro-N-{(1-hydroxycyclopentyl)[3-(trifluoromethoxy)phenyl]methyl}-4-(trifluoromethyl)pyridine-2-carboxamide], 2600 nM.
`O=C(NC(c1cccc(Br)c1)C1(O)CCC(F)(F)CC1)c1nccc(C(F)(F)F)c1Cl` (stereo not shown) [Compound 85, N-[(3-bromophenyl)(4,4-difluoro-1-hydroxycyclohexyl)methyl]-3-chloro-4-(trifluoromethyl)pyridine-2-carboxamide] displayed an IC50 of 320 nM.
The result for `CCn1cc(-c2cccc(C(NC(=O)c3nccc(C(F)(F)F)c3Cl)C3(O)CCC(F)(F)CC3)c2)cn1` (stereo not shown) [Compound 86, 3-chloro-N-{(4,4-difluroo-1-hydroxycyclohexyl)[3-(1-ethyl-1H-pyrazol-4-yl)phenyl]methyl}-4-(trifluoromethyl)pyridine-2-carboxamide] reads 73 nM; that for `CCOc1cccc(C(NC(=O)c2nccc(C(F)(F)F)c2Cl)C2(O)CCCC2)c1` (stereo not shown) [Compound 87, 3-chloro-N-[(3-ethoxyphenyl)(1-hydroxycyclopentyl)methyl]-4-(trifluoromethyl)pyridine-2-carboxamide], 300 nM; that for `O=C(NC(c1cc(F)cc(Cl)c1)C1(O)CCCC1)c1nccc(C(F)(F)F)c1Cl` (stereo not shown) [Compound 88, 3-chloro-N-[(3-chloro-5-fluroophenyl)(1-hydroxycyclopentyl)methyl]-4-(trifluoromethyl)pyridine-2-carboxamide], 180 nM.
The result for `O=C(NC(c1ccc(F)c(Cl)c1)C1(O)CCCC1)c1nccc(C(F)(F)F)c1Cl` (stereo not shown) [Compound 93, 3-chloro-N-{(3-chloro-4-fluorophenyl)(1-hydroxycyclopentyl)methyl}-4-(trifluoromethyl)pyridine-2-carboxamide] reads 430 nM; that for `O=C(NC(c1ccc(F)cc1Cl)C1(O)CCCC1)c1nccc(C(F)(F)F)c1Cl` (stereo not shown) [Compound 95, 3-chloro-N-[(2-chloro-4-fluorophenyl)(1-hydroxycyclopentyl)methyl]-4-(trifluoromethyl)pyridine-2-carboxamide], 130 nM.
With `O=C(NC(c1cccc(Br)c1)C1(O)CCC(F)CC1)c1nccc(C(F)(F)F)c1Cl` (stereo not shown) [Compound 96, N-[(3-bromophenyl)(4-fluoro-1-hydroxycyclohexyl)methyl]-3-chloro-4-(trifluoromethyl)pyridine-2-carboxamide] the figure was 250 nM.
The compound `COC(=O)c1cccc(C(NC(=O)c2nccc(C(F)(F)F)c2Cl)C2(O)CCCC2)c1` (stereo not shown) [Compound 98, methyl 3-[({[3-chloro-4-(trifluoromethyl)pyridin-2-yl]carbonyl}amino)(1-hydroxycyclopentyl)methyl]benzoate] showed an IC50 of 590 nM.
With `O=C(N[C@H](c1cccc(Br)c1)[C@]1(O)CC[C@H](F)CC1)c1nccc(C(F)(F)F)c1Cl` [Compound 101, N-[(R)-(3-bromophenyl)(trans-4-fluoro-1-hydroxycyclohexyl)methyl]-3-hcloro-4-(trifluoromethyl)pyridine-2-carboxamide] the figure was 1500 nM; with `O=C(N[C@@H](c1cccc(Br)c1)[C@]1(O)CC[C@H](F)CC1)c1nccc(C(F)(F)F)c1Cl` [Compound 102, N-[(S)-(3-bromophenyl)(trans-4-fluoro-1-hydroxycyclohexyl)methyl]-3-chloro-4-(trifluoromethyl)pyridine-2-carboxamide], 150 nM.
Turning to `O=C(NC(c1ccccc1Cl)C1(O)CCC(F)(F)CC1)c1nccc(C(F)(F)F)c1Cl` (stereo not shown) [Compound 103, 3-chloro-N-[(2-chlorophenyl)(4,4-difluoro-1-hydroxycyclohexyl)methyl]-4-(trifluoromethyl)pyridine-2-carboxamide], the IC50 stood at 250 nM.
The result for `O=C(NC(c1cccc(CO)c1)C1(O)CCCC1)c1nccc(C(F)(F)F)c1Cl` (stereo not shown) [Compound 104, 3-chloro-N-{(1-hydroxycyclopentyl)[3-(hydroxymethyl)phenyl]methyl}-4-(trifluoromethyl)pyridine-2-carboxamide] reads 920 nM.
With `CN(C)C(=O)c1cccc(C(NC(=O)c2nccc(C(F)(F)F)c2Cl)C2(O)CCCC2)c1` (stereo not shown) [Compound 105, 3-chloro-N-{[3-(dimethylcarbamoyl)phenyl](1-hydroxycyclopentyl)methyl}-4-(trifluoromethyl)pyridine-2-carboxamide] the figure was 1600 nM.
The result for `NC(=O)c1cccc(C(NC(=O)c2nccc(C(F)(F)F)c2Cl)C2(O)CCCC2)c1` (stereo not shown) [Compound 106, N-[(3-carbamoylphenyl)(1-hydroxycyclopentyl)methyl]-3-chloro-4-(trifluoromethyl)pyridine-2-carboxamide] reads 900 nM; that for `O=C(NC(c1cccc(Cl)c1Cl)C1(O)CCCC1)c1nccc(C(F)(F)F)c1Cl` (stereo not shown) [Compound 107, 3-chloro-N-[(2,3-dichlorophenyl)(1-hydroxycyclopentyl)methyl]-4-(trifluoromethyl)pyridine-2-carboxamide], 39 nM.

The values above are taken from US20160130278A1 (TAISHO PHARMACEUTICAL CO., LTD, priority 2013, published 2016).
